The term IC50 denotes the concentration that inhibits the measured activity by half. The term Ki denotes the equilibrium dissociation constant of an inhibitor or competing ligand from its target.

Series [1] deals with Beta-3 adrenergic receptor (Homo sapiens, UniProt P13945). The series is described as follows: DRUGMATRIX: Adrenergic beta3 radioligand binding (ligand: [125I] Cyanopindolol). Format: cell membranes, HEK293, Membrane. The following applies: hek293; Not Active = under 50% inhibition at 10 µM.
Beta-3 adrenergic receptor, sequence (P13945 whole entry): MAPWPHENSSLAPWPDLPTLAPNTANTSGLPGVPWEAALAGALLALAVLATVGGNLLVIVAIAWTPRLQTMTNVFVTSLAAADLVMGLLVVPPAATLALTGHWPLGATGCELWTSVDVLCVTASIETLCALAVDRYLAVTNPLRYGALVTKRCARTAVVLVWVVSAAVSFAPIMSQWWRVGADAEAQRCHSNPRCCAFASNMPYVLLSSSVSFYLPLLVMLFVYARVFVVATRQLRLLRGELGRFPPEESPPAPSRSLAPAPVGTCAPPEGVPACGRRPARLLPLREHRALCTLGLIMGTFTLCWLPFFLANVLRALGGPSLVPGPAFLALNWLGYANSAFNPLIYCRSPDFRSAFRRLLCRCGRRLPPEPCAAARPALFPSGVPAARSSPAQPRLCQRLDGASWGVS
In the next series the target is Cytochrome P450 2C9 (Homo sapiens, UniProt P11712). The following applies: bti-tn-5b1-4. Note: in other assays of this panel Not Active means under 50% inhibition at 10 µM.
Cytochrome P450 2C9, sequence (P11712 whole entry): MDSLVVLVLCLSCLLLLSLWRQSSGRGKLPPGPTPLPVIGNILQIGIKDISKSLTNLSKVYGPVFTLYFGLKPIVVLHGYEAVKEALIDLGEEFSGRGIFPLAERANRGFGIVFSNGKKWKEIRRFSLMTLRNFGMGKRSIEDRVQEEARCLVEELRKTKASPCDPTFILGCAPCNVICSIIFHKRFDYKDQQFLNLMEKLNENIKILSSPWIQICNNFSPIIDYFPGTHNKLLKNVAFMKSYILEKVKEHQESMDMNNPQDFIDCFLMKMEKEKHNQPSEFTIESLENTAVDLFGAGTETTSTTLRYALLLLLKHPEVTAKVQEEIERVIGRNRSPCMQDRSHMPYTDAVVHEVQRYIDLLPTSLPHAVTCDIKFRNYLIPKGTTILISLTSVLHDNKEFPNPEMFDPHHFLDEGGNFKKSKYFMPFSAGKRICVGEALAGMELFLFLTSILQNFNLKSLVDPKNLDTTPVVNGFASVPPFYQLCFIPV
Another series has as its target T1, Cytochrome P450 1A2 (Homo sapiens, UniProt P05177). Note: in other assays of this panel Not Active means under 50% inhibition at 10 µM.
T1 sequence (P05177 whole entry): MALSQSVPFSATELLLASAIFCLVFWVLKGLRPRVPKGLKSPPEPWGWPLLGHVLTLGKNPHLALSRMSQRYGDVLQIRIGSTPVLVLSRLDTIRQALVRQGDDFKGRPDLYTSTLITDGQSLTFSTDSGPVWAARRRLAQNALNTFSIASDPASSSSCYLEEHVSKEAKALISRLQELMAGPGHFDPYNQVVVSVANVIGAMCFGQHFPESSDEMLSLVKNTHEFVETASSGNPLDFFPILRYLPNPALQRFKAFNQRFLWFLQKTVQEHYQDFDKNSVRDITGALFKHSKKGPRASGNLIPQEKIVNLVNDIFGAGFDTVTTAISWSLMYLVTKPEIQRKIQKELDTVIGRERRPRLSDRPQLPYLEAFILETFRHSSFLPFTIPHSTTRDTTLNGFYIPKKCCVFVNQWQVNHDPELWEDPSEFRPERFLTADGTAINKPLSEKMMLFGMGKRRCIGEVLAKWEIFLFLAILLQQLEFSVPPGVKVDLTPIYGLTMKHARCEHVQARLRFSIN
The following applies: bti-tn-5b1-4.

Series [2] is described as follows: DRUGMATRIX: Calcium Channel Type L, Phenylalkylamine radioligand binding (ligand: [3H] (-)-Desmethoxyverapamil (D-888)). The following applies: Not Active = under 50% inhibition at 10 µM. It counts as cell membranes, Rattus norvegicus, Wistar, Brain, Membrane.
A further series deals with T2, Adenosine receptor A3 (Homo sapiens, UniProt P0DMS8).
T2 sequence (P0DMS8 whole entry): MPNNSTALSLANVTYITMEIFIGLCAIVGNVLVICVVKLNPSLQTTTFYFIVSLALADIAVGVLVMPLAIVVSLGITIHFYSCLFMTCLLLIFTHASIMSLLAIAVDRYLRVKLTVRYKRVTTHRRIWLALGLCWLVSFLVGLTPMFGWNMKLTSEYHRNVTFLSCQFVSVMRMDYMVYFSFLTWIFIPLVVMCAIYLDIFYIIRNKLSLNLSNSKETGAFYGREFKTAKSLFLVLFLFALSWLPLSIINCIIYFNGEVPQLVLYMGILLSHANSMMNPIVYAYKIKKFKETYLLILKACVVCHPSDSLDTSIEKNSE
It counts as cell membranes, CHO-K1, Membrane. The following applies: cho-k1.

In series [3] the target is Aldo-keto reductase family 1 member B1 (Rattus norvegicus, UniProt P07943). In words: biochemical. It counts as tissue-based, Lens of camera-type eye.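 Note: inhibition of aldose reductase enzyme activity, measured with DL-glyceraldehyde as the substrate; in other assays of this panel Not Active means under 50% inhibition at 10 µM.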

As to `CC(C)(C)NC(=O)[C@@H]1C[C@@H]2CCCC[C@@H]2CN1C[C@@H](O)[C@H](Cc1ccccc1)NC(=O)[C@H](CC(N)=O)NC(=O)c1ccc2ccccc2n1`, the IC50 result is “Not Active” in series [1]; “Not Active” at Cytochrome P450 2C9; “Not Active” on Cytochrome P450 1A2; 6.83 µM in series [2] (read-out: IC50); “Not Active” on Adenosine receptor A3; “Not Active” in series [3]. Moreover, the Ki entry is “Not Active” at Cytochrome P450 2C9, “Not Active” on Cytochrome P450 1A2 and 6.65 µM in series [2] (read-out: Ki).
As for `CC1(C)O[C@@H]2C[C@H]3[C@@H]4CCC5=CC(=O)C=C[C@]5(C)[C@@]4(F)[C@@H](O)C[C@]3(C)[C@]2(C(=O)CO)O1` [TRIAMCINOLONE ACETONIDE], the IC50 entry (in series [1]; on Cytochrome P450 2C9; against Cytochrome P450 1A2; in series [2]; against Adenosine receptor A3; in series [3]) was “Not Active” throughout. Further, the Ki entry (at Cytochrome P450 2C9; on Cytochrome P450 1A2; in series [2]) was “Not Active” each time.
For `Cc1cccc(N(C)C(=S)Oc2ccc3ccccc3c2)c1` [TOLNAFTATE], the IC50 result (in series [1]; on Cytochrome P450 2C9; against Cytochrome P450 1A2; in series [2]; against Adenosine receptor A3; in series [3]) was “Not Active” throughout. Also, the inhibition constant Ki entry (at Cytochrome P450 2C9; on Cytochrome P450 1A2; in series [2]) was “Not Active” in each case.
Turning to `C[C@@H]1CN(c2c(F)c(N)c3c(=O)c(C(=O)O)cn(C4CC4)c3c2F)C[C@H](C)N1` [SPARFLOXACIN], the 50% inhibitory concentration (IC50) entry (in series [1]; on Cytochrome P450 2C9; at Cytochrome P450 1A2; in series [2]; against Adenosine receptor A3; in series [3]) was “Not Active” in each case. For the same compound, the Ki result (at Cytochrome P450 2C9; on Cytochrome P450 1A2; in series [2]) was “Not Active” throughout.
Consider `C=CCC1(C(C)CCC)C(=O)NC(=O)NC1=O` (configuration not stated) [SECOBARBITAL], for which the IC50 result (in series [1]; against Cytochrome P450 2C9; at Cytochrome P450 1A2; in series [2]; at Adenosine receptor A3; in series [3]) was “Not Active” in each case. The Ki entry (on Cytochrome P450 2C9; at Cytochrome P450 1A2; in series [2]) was “Not Active” throughout.
Consider `N[C@@H](Cc1ccc(N(CCCl)CCCl)cc1)C(=O)O`, for which the IC50 entry (in series [1]; at Cytochrome P450 2C9; against Cytochrome P450 1A2; in series [2]; against Adenosine receptor A3; in series [3]) was “Not Active” each time. The Ki entry (on Cytochrome P450 2C9; at Cytochrome P450 1A2; in series [2]) was “Not Active” throughout.
In the case of `N[C@@H]1[C@H]2CN(c3nc4c(cc3F)c(=O)c(C(=O)O)cn4-c3ccc(F)cc3F)C[C@@H]12` [TROVAFLOXACIN], the half-inhibitory concentration (IC50) result (in series [1]; against Cytochrome P450 2C9; against Cytochrome P450 1A2; in series [2]; against Adenosine receptor A3; in series [3]) was “Not Active” each time. The Ki entry (on Cytochrome P450 2C9; on Cytochrome P450 1A2; in series [2]) was “Not Active” in each case.
Take `Cc1nc2n(c(=O)c1CCN1CCC(c3noc4cc(F)ccc34)CC1)CCCC2` [RISPERIDONE]: the IC50 result (in series [1]; on Cytochrome P450 2C9; against Cytochrome P450 1A2; against Adenosine receptor A3; in series [3]) was “Not Active” in each case. Moreover, the Ki entry on Cytochrome P450 2C9 and on Cytochrome P450 1A2 was “Not Active” each time.
In the case of `Cc1oncc1C(=O)Nc1ccc(C(F)(F)F)cc1` [LEFLUNOMIDE], the IC50 result (in series [1]; against Cytochrome P450 2C9; in series [2]; on Adenosine receptor A3; in series [3]) was “Not Active” each time. Also, the Ki entry (on Cytochrome P450 2C9; in series [2]) was “Not Active” throughout.

These data come from ChEMBL document CHEMBL1909046, “DrugMatrix in vitro pharmacology data”.
